Activity calls are given as the source filed them. The rule behind the calls is not given here.
Tests used:
Assay type in all cases: functional, cell-based
ASPC1 = test: Cytotoxicity against human AsPC1 cells after 72 hrs by MTT assay; details: ASPC1, 72 h
DLD-1 = test: Cytotoxicity against human DLD1 cells after 72 hrs by MTT assay; details: DLD-1, 72 h
PANC-1 [1] = test: Cytotoxicity against human PANC1 cells after 72 hrs by MTT assay; details: PANC-1, 72 h
[2] = Cytotoxicity against taxol-resistant human NCI/ADR cells after 72 hrs by MTT assay; details: NCI/ADR-RES
PANC-1 [3] = test: Cell cycle arrest in human PANC1 cells assessed as accumulation at G2/M phase after 24 hrs
PANC-1 [4] = test: Microtubule polymerization in human PANC1 cells
P388 = test: Cytotoxicity against mouse P388 cells by MTT assay

| Structure (SMILES) | IC50 (ASPC1) [nM] | IC50 (DLD-1) [nM] | IC50 (PANC-1 [1]) [nM] | IC50 [2] [nM] | Activity (PANC-1 [3]) | Activity (PANC-1 [4]) | IC50 (P388) [nM] |
| --- | --- | --- | --- | --- | --- | --- | --- |
| C=C/C=C\[C@H](C)[C@@H]1OC(=O)/C=C\C=C\[C@@H](C)[C@@H](O)C[C@H](O)CC[C@H](C)[C@H](O)[C@@H](C)C[C@@H](C)CC[C@@H](O)[C@@H]1C | 43 | 10 | 18 | 300 | Active | Active |  |
| C=C/C=C\[C@H](C)[C@@H]1OC(=O)/C=C\C=C\[C@@H](C)[C@@H](O)C[C@H](O)/C=C\[C@H](C)[C@H](O)[C@@H](C)C[C@@H](C)CC[C@@H](O)[C@@H]1C [DICTYOSTATIN] | 9 | 0.8 | 3.4 | 9.8 |  |  |  |
| C=C/C=C\[C@H](C)[C@H](OC(N)=O)[C@@H](C)[C@H](O)[C@@H](C)C/C(C)=C\[C@H](C)[C@@H](O)[C@@H](C)/C=C\[C@@H](O)C[C@@H]1OC(=O)[C@H](C)[C@@H](O)[C@H]1C [DISERMOLIDE] | 98 | 29 | 59 | 160 |  |  | 35 |
| CC(=O)O[C@H]1C(=O)[C@@]2(C)[C@H]([C@H](OC(=O)c3ccccc3)[C@]3(O)C[C@H](OC(=O)[C@H](O)[C@@H](NC(=O)c4ccccc4)c4ccccc4)C(C)=C1C3(C)C)[C@]1(OC(C)=O)CO[C@@H]1C[C@@H]2O [PACLITAXEL] | 20 | 11 | 7 | 1000 |  |  |  |

— ChEMBL document CHEMBL1142408, “Synthesis and biological evaluation of 10,11-dihydrodictyostatin, a potent analogue of the marine anticancer agent dictyostatin” (J Nat Prod, 2008)
